The record followed here is BindingDB's records for doi:10.1021/jm00018a020 (Centre De Recherche Pierre Fabre, 1995).

Molecules are shown by their SMILES.

5-hydroxytryptamine receptor 1B (Homo sapiens), sequence (P28222 whole entry, looked up): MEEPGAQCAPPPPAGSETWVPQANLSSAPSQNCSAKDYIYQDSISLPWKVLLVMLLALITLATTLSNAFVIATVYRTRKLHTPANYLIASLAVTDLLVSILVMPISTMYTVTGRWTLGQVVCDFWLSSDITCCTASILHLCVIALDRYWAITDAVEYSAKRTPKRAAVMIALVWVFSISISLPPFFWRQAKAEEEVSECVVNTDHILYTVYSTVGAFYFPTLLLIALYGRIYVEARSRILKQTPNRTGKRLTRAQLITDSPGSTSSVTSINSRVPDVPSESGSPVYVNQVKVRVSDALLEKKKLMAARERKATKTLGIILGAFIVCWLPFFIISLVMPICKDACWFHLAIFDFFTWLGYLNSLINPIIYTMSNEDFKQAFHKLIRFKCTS

This assay concerns the target 5-hydroxytryptamine receptor 1B (Homo sapiens) (UniProt P28222). Briefly: Binding affinity for cloned human 5-hydroxytryptamine 1D receptor beta.
Consider `CN(C)S(=O)(=O)Nc1ccc(N2CCN(C(=O)COc3ccc4[nH]cc(CCN)c4c3)CC2)cc1`, for which the affinity, expressed as Ki, was 1.9 nM.
For `N#Cc1ccccc1N1CCN(C(=O)COc2ccc3[nH]cc(CCN)c3c2)CC1` [2-(4-{2-[3-(2-Amino-ethyl)-1H-indol-5-yloxy]-acetyl}-piperazin-1-yl)-benzonitrile], the affinity corresponds to a Ki of 0.39 nM.
For `NCCc1c[nH]c2ccc(OCC(=O)N3CCN(c4ccccc4)CC3)cc12` [2-[3-(2-Amino-ethyl)-1H-indol-5-yloxy]-1-(4-phenyl-piperazin-1-yl)-ethanone], the Ki (as a rule, the dissociation constant of the complex between target and ligand, obtained from inhibition or displacement) worked out at 0.4 nM.
To `NCCc1c[nH]c2ccc(OCC(=O)N3CCN(c4ccccc4CN)CC3)cc12` [2-[3-(2-Amino-ethyl)-1H-indol-5-yloxy]-1-[4-(2-aminomethyl-phenyl)-piperazin-1-yl]-ethanone] belongs 1.8 nM.
Compound `NCCc1c[nH]c2ccc(OCC(=O)N3CCN(c4ccccc4[N+](=O)[O-])CC3)cc12` [2-[3-(2-Amino-ethyl)-1H-indol-5-yloxy]-1-[4-(2-nitro-phenyl)-piperazin-1-yl]-ethanone] displayed an inhibition constant (Ki) of 0.3 nM.
Compound `NCCc1c[nH]c2ccc(OCC(=O)N3CCN(c4ccc(N)cc4)CC3)cc12` [2-[3-(2-Amino-ethyl)-1H-indol-5-yloxy]-1-[4-(4-amino-phenyl)-piperazin-1-yl]-ethanone] yielded an inhibition constant Ki of 1.6 nM.
To `NCCc1c[nH]c2ccc(OCC(=O)N3CCN(c4ccc(CN)cc4)CC3)cc12` [2-[3-(2-Amino-ethyl)-1H-indol-5-yloxy]-1-[4-(4-aminomethyl-phenyl)-piperazin-1-yl]-ethanone] belongs 2.5 nM; to `NCCc1c[nH]c2ccc(OCC(=O)N3CCN(c4ccc([N+](=O)[O-])cc4)CC3)cc12` [2-[3-(2-Amino-ethyl)-1H-indol-5-yloxy]-1-[4-(4-nitro-phenyl)-piperazin-1-yl]-ethanone], 0.83 nM.
The compound `NCCc1c[nH]c2ccc(OCCCC(=O)N3CCN(c4ccc([N+](=O)[O-])cc4)CC3)cc12` [4-[3-(2-Amino-ethyl)-1H-indol-5-yloxy]-1-[4-(4-nitro-phenyl)-piperazin-1-yl]-butan-1-one] returned a Ki of 5 nM.
With `NCCc1c[nH]c2ccc(OCCCCC(=O)N3CCN(c4ccc([N+](=O)[O-])cc4)CC3)cc12` [5-[3-(2-Amino-ethyl)-1H-indol-5-yloxy]-1-[4-(4-nitro-phenyl)-piperazin-1-yl]-pentan-1-one], the Ki came out at 1.8 nM.
The result for `NCCc1c[nH]c2ccc(OCCCCCC(=O)N3CCN(c4ccc(N)cc4)CC3)cc12` [6-[3-(2-Amino-ethyl)-1H-indol-5-yloxy]-1-[4-(4-amino-phenyl)-piperazin-1-yl]-hexan-1-one] reads 0.31 nM.
In the case of `NCCc1c[nH]c2ccc(OCCCCCC(=O)N3CCN(c4ccc([N+](=O)[O-])cc4)CC3)cc12` [6-[3-(2-Amino-ethyl)-1H-indol-5-yloxy]-1-[4-(4-nitro-phenyl)-piperazin-1-yl]-hexan-1-one], the Ki was 0.47 nM.
The result for `CN(C)CCc1c[nH]c2ccc(C[C@H]3COC(=O)N3)cc12` [(S)-4-((3-(2-(dimethylamino)ethyl)-1H-indol-5-yl)methyl)oxazolidin-2-one] reads 4 nM; that for `CS(=O)(=O)NCc1ccccc1N1CCN(C(=O)COc2ccc3[nH]cc(CCN)c3c2)CC1` [N-[2-(4-{2-[3-(2-Amino-ethyl)-1H-indol-5-yloxy]-acetyl}-piperazin-1-yl)-benzyl]-methanesulfonamide], 0.53 nM; that for `CS(=O)(=O)NCc1ccc(N2CCN(C(=O)COc3ccc4[nH]cc(CCN)c4c3)CC2)cc1` [N-[4-(4-{2-[3-(2-Amino-ethyl)-1H-indol-5-yloxy]-acetyl}-piperazin-1-yl)-benzyl]-methanesulfonamide], 2.2 nM.
Consider `NCCc1c[nH]c2ccc(OCC(=O)N3CCN(c4ccc(NC(=O)c5ccccc5)cc4)CC3)cc12` [N-[4-(4-{2-[3-(2-Amino-ethyl)-1H-indol-5-yloxy]-acetyl}-piperazin-1-yl)-phenyl]-benzamide], for which the Ki stood at 1.3 nM.
The result for `CS(=O)(=O)Nc1ccc(N2CCN(C(=O)COc3ccc4[nH]cc(CCN)c4c3)CC2)cc1` [N-[4-(4-{2-[3-(2-Amino-ethyl)-1H-indol-5-yloxy]-acetyl}-piperazin-1-yl)-phenyl]-methanesulfonamide] reads 2.7 nM.
The result for `CS(=O)(=O)Nc1ccc(N2CCN(C(=O)CCCCCOc3ccc4[nH]cc(CCN)c4c3)CC2)cc1` [N-[4-(4-{6-[3-(2-Amino-ethyl)-1H-indol-5-yloxy]-hexanoyl}-piperazin-1-yl)-phenyl]-methanesulfonamide] reads 1.4 nM.
